Tests used:
rats = experiment: Acute toxicity in rats by peroral administration; format: in vivo
platelet aggregation = experiment: Platelet aggregation ex vivo (1), arachidonic acid-induced, PRP after oral administration; format: in vivo, male Hartley guinea-pigs; conditions: guinea-pig, oral 1.0 mg/kg, 6 hours after administration, arachidonic acid final 50 μM
Protocol: Male Hartley guinea-pigs weighing about 300 g were used after 24 hours fasting. Six hours after oral administration of the test compound or vehicle of test compound (control), blood was collected into a tube containing 0.1 vol. of 3.8% sodium citrate and prepared platelet rich plasma (PRP).
To the 250 μl of PRP, 5 μl of arachidonic acid (final 50 μM) was added as an aggregation inducer. Aggregation was measured by using an aggregometer (NKK HEMA-TRACER 1).

stomachs of the rats = experiment: Effect on stomach of rats; format: in vivo; conditions: 100 mg/kg, oral
thrombin = experiment: Assay for thrombin activity (S-2238 substrate); format: biochemical; conditions: concentration 1.0 × 10^-4 M, pH 8.0, 37° C.
Protocol: Thrombin activity was measured using the synthetic peptide substrate (S-2238, Kabivitrum).
After 900 μl of 0.1 M Tris-HCl buffer (pH 8.0), 100 μl of drug solution and 10 μl of 3U/ml thrombin were incubated at 37° C. for 5 min, 2 ml of 100 μM S-2238 was added.
The rate of increase in absorbance at 405 nm due to hydrolysis of S-2238 was measured with a spectrophotometer.
Inhibition (%) of drug was calculated as follows:
Inhibition (%)=(S-B)/A×100
A:Abs/min in the absence of drug
B:Abs/min in the presence of drug

Row | Structure (SMILES) | acute toxicity, deaths at 100 mg/kg (rats) | Inhibition (%) of platelet aggregation (platelet aggregation) [%] | lesion in stomachs of rats (stomachs of the rats) | Inhibition (%) of thrombin activity (thrombin) [%]
1 | COc1ccc(-c2nc(C(=O)N3CCN(C)CC3)sc2-c2ccc(OC)cc2)cc1.Cl [Example 1, 4,5-bis(4-methoxyphenyl)-2-(4methylpiperazin-1-yl)carbonylthiazole hydrochloride] | the dead at dose of 100 mg/kg could not be observed | 100 | No lesion was observed | –
2 | COc1ccc(-c2nc(C(=O)NC(=N)N)sc2-c2ccc(OC)cc2)cc1 [Example 5, 4,5-bis(4-methoxyphenyl)-2-guanidinocarbonylthiazole] | – | – | – | 92.2

Source: patent US5217971A, “Thiazole compounds and pharmaceutical composition comprising the same” (Fujisawa Pharmaceutical Co., Ltd., priority 1989, dated 1993)
